Assay results reported in patent publication US11266643B2, “Triaryl compounds for treatment of PD-L1 diseases” (CHEMOCENTRYX, INC., priority 2019, dated 2022).

Target: human PD-L1 (Homo sapiens (Human), UniProt Q9NZQ7)
Assay: Enzyme-Linked Immunosorbent Assay (ELISA), PD-1/PD-L1 binding
In short: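 Plates coated with […] human PD-L1 overnight at 4° C, blocked, then 1:5 serial compound dilutions added with human PD-1 […] 0.31 μg/mL for 1 h at 37° C. Bound PD-1 detected with streptavidin-HRP and TMB (20 min, 37° C); absorbance read at 450 nm after H2SO4 stop.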

[1] = human PD-1/PD-L1 ELISA, plates coated with human PD-L1
[2] = plate-coated human PD-L1, biotinylated Human PD-1, absorbance at 450 nm
[3] = PD-1/PD-L1 ELISA, human PD-L1 coated plates, Table 1

human PD-L1, sequence (Q9NZQ7 19-239): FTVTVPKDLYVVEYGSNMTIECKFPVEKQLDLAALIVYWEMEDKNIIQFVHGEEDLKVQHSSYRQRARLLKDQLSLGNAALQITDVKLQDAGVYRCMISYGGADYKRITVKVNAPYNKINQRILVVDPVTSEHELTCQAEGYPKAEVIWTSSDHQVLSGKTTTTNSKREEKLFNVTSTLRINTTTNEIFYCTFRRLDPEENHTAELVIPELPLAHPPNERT

SMILES	IC50 [1] [nM]	also measured
COc1cc(-c2cccc(-c3cccc(NC(=O)c4cn(C)c(=O)n(C)c4=O)c3C)c2Cl)cc(F)c1CNC(C)C [Example 2.064]		IC50 [2]: < 10 nM
COc1cc(-c2cccc(-c3cccc(Nc4nccc5c4OCCN5)c3C)c2C)cc(F)c1CN1CC(C(=O)O)C1 [Example 1.244]		IC50 [3]: 10 to 1000 nM
COc1cc(-c2cccc(-c3cccc(NC(=O)c4cn(C)c(=O)n(C)c4=O)c3Cl)c2Cl)cc(F)c1CNC[C@@H]1CCC(=O)N1 [Example 1.031]	< 10	
COc1cc(-c2cccc(-c3cccc(NC(=O)c4cccn(C)c4=O)c3C)c2C)cc(F)c1CN[C@@H]1CCC[C@@H]1O [Example 1.165]	< 10	
COc1cc(-c2cccc(-c3cccc(NC(=O)c4cnc(CC(=O)O)cn4)c3C)c2C)cc(F)c1CN [Example 1.309]		IC50 [3]: < 10 nM
COc1cc(-c2cccc(-c3cccc(NC(=O)c4nn(C)c(=O)n(C)c4=O)c3C)c2C)cc(F)c1CN[C@H]1CCCNC1=O [Example 1.060]	10 to 1000	
COc1cc(-c2cccc(-c3cccc(NC(=O)c4cn(C)c(=O)n(C)c4=O)c3F)c2C)cc(F)c1CN[C@@H]1CNC(=O)C1 [Example 1.044]	10 to 1000	
COc1cc(-c2cccc(-c3cccc(NC(=O)c4ccc(CNCCO)cn4)c3C)c2C)cc(F)c1CNCCS(=O)(=O)O [Example 1.399]	< 10	
COc1cc(-c2cccc(-c3cccc(NC(=O)c4cn(C)c(=O)n(C)c4=O)c3C)c2C)cc(F)c1CN1CC(C(=O)O)C1 [Example 2.014]		IC50 [2]: < 10 nM
COc1cc(-c2cccc(-c3cccc(NC(=O)c4cn(C)c(=O)n(C)c4=O)c3C)c2F)cc(F)c1CN[C@H]1CCC(=O)NC1 [Example 1.005]	< 10	
COc1cc(-c2cccc(-c3cccc(NC(=O)c4c[nH]c(=O)n(C)c4=O)c3C)c2C)cc(F)c1CN1CC2(C1)NC(=O)NC2=O [Example 1.242]		IC50 [3]: 10 to 1000 nM
COc1cc(-c2cccc(-c3cccc(NC(=O)c4cn(C)c(=O)n(C)c4=O)c3C)c2C)cc(F)c1CN[C@@H]1CNC(=O)C1 [Example 1.188]	< 10	
COc1cc(-c2cccc(-c3cccc(NC(=O)c4c[nH]c(=O)n(C)c4=O)c3C)c2C)cc(F)c1CN1CC(C(=O)O)C1 [Example 1.283]		IC50 [3]: < 10 nM
CC[C@@H](O)NCc1c(F)cc(-c2cccc(-c3cccc(Nc4nccc5c4C(=O)N(C)CC5)c3C)c2C)cc1OC [Example 1.190]	< 10	
COc1cc(-c2cccc(-c3cccc(NC(=O)c4cn(C)c(=O)n(C)c4=O)c3C)c2Cl)cc(F)c1CN1CCC(C)(O)CC1 [Example 2.018]		IC50 [2]: < 10 nM
COc1cc(-c2cccc(-c3cccc(NC(=O)c4ccccn4)c3C)c2C)cc(F)c1CNC(CO)CO [Example 1.376]		IC50 [3]: 10 to 1000 nM
COc1cc(-c2cccc(-c3cccc(NC(=O)c4c[nH]c(=O)n(C)c4=O)c3Cl)c2Cl)cc(F)c1CN[C@H]1CCOC[C@H]1O [Example 2.029]		IC50 [2]: < 10 nM
COc1cc(-c2cccc(-c3cccc(NC(=O)c4cncn(C)c4=O)c3C)c2C)cc(F)c1CNCCC(=O)O [Example 1.266]		IC50 [3]: < 10 nM
COc1cc(-c2cccc(-c3cccc(NC(=O)c4cn(C)c(=O)n(C)c4=O)c3Cl)c2Cl)cc(F)c1CNCC(C)(C)C(N)=O [Example 2.108]		IC50 [2]: < 10 nM
COc1cc(-c2cccc(-c3cccc(NC(=O)c4cn(C)c(=O)n(C)c4=O)c3Cl)c2Cl)cc(F)c1CN[C@@H]1CCOC[C@H]1O [Example 1.006]	< 10	

The next lines start with results.

IC50 [1] [nM]	SMILES	also measured
< 10	COc1cc(-c2cccc(-c3cccc(NC(=O)c4cccn(C)c4=O)c3C)c2C)cc(F)c1CNC[C@H]1CCC(=O)N1 [Example 1.145]	
< 10	COc1cc(-c2cccc(-c3cccc(NC(=O)c4nn(C)c(=O)n(C)c4=O)c3C)c2C)cc(F)c1CNC[C@@H]1CCC(=O)N1 [Example 1.104]	
< 10	COc1cc(-c2cccc(-c3cccc(NC(=O)c4cn(C)c(=O)n(C)c4=O)c3C)c2C)cc(F)c1CNCC(C)(C)C(N)=O [Example 1.080]	
< 10	COc1cc(-c2cccc(-c3cccc(NC(=O)c4nn(C)c(=O)n(C)c4=O)c3C)c2C)cc(F)c1CNCCC1CCC(=O)N1 (stereo not drawn) [Example 1.106]	
